Results as given in US12037340B2, “Pentacyclic derivatives as Zika virus inhibitors” (Gilead Sciences, Inc., priority 2021, dated 2024).

System: ZIKV
Test: microbe, parasite or virus in culture
Assay type: cell-based, Zika virus
Settings: Zika virus, Huh-7; 48 hrs

SMILES | EC50 [nM]
CC[C@H](C)[C@H](NC(=O)OC)C(=O)N1C[C@@H](COC)C[C@H]1c1nc(Br)c(-c2ccc3c(c2)COc2cc4c(ccc5nc([C@@H]6CC[C@H](C)N6C(=O)[C@@H](NC(=O)OC)C(C)C)[nH]c54)cc2-3)[nH]1 [Compound 17, methyl ((S)-1-((2S,5S)-2-(9-(4-bromo-2-((2S,4S)-1-((methoxycarbonyl)-L-isoleucyl)-4-(methoxymethyl)pyrrolidin-2-yl)-1H-imidazol-5-yl)-1,11-dihydroisochromeno[4′,3′:6,7]naphtho[1,2-d]imidazol-2-yl)-5-methylpyrrolidin-1-yl)-3-methyl-1-oxobutan-2-yl)carbamate] | 15.6
COC(=O)N[C@H](C(=O)N1[C@@H](C)CC[C@H]1c1nc(Cl)c(-c2ccc3c(c2)COc2cc4c(ccc5nc([C@@H]6CC[C@H](C)N6C(=O)[C@@H](NC(=O)OC)C(C)(C)CF)[nH]c54)cc2-3)[nH]1)C(C)(C)CF [Compound 32, methyl ((S)-1-((2S,5S)-2-(4-chloro-5-(2-((2S,5S)-1-((S)-4-fluoro-2-((methoxycarbonyl)amino)-3,3-dimethylbutanoyl)-5-methylpyrrolidin-2-yl)-1,11-dihydroisochromeno[4′,3′:6,7]naphtho[1,2-d]imidazol-9-yl)-1H-imidazol-2-yl)-5-methylpyrrolidin-1-yl)-4-fluoro-3,3-dimethyl-1-oxobutan-2-yl)carbamate] | 5.9
COC(=O)N[C@H](C(=O)N1[C@@H](C)CC[C@H]1c1nc(Br)c(-c2ccc3c(c2)COc2cc4c(ccc5nc([C@@H]6CC[C@H](C)N6C(=O)[C@@H](NC(=O)OC)C(C)C)[nH]c54)cc2-3)[nH]1)C(C)C [Compound 31, methyl ((S)-1-((2S,5S)-2-(4-bromo-5-(2-((2S,5S)-1-((methoxycarbonyl)-L-valyl)-5-methylpyrrolidin-2-yl)-1,11-dihydroisochromeno[4′,3′:6,7]naphtho[1,2-d]imidazol-9-yl)-1H-imidazol-2-yl)-5-methylpyrrolidin-1-yl)-3-methyl-1-oxobutan-2-yl)carbamate] | 8.5
COC(=O)N[C@H](C(=O)N1[C@@H](C)CC[C@H]1c1nc(C(C)C)c(-c2ccc3c(c2)COc2cc4c(ccc5nc([C@@H]6CC[C@H](C)N6C(=O)[C@@H](NC(=O)OC)C(C)C)[nH]c54)cc2-3)[nH]1)C(C)C [Compound 43, methyl ((S)-1-((2S,5S)-2-(4-isopropyl-5-(2-((2S,5S)-1-((methoxycarbonyl)-L-valyl)-5-methylpyrrolidin-2-yl)-1,11-dihydroisochromeno[4′,3′:6,7]naphtho[1,2-d]imidazol-9-yl)-1H-imidazol-2-yl)-5-methylpyrrolidin-1-yl)-3-methyl-1-oxobutan-2-yl)carbamate] | 57.7
CC[C@H](C)[C@H](NC(=O)OC)C(=O)N1[C@@H](C)CC[C@H]1c1nc(C(C)C)c(-c2ccc3c(c2)COc2cc4c(ccc5nc([C@@H]6CC[C@H](C)N6C(=O)[C@@H](NC(=O)OC)[C@@H](C)CC)[nH]c54)cc2-3)[nH]1 [Compound 44, methyl ((2S,3S)-1-((2S,5S)-2-(4-isopropyl-5-(2-((2S,5S)-1-((methoxycarbonyl)-L-isoleucyl)-5-methylpyrrolidin-2-yl)-1,11-dihydroisochromeno[4′,3′:6,7]naphtho[1,2-d]imidazol-9-yl)-1H-imidazol-2-yl)-5-methylpyrrolidin-1-yl)-3-methyl-1-oxopentan-2-yl)carbamate] | 11.5
COC[C@H]1C[C@@H](c2nc(Br)c(-c3ccc4c(c3)COc3cc5c(ccc6nc([C@@H]7CC[C@H](C)N7C(=O)[C@@H](NC(=O)OC)C(C)C)[nH]c65)cc3-4)[nH]2)N(C(=O)[C@@H](NC(=O)OC)C(C)C)C1 [Compound 8, methyl ((S)-1-((2S,5S)-2-(9-(4-bromo-2-((2S,4S)-1-((methoxycarbonyl)-L-valyl)-4-(methoxymethyl)pyrrolidin-2-yl)-1H-imidazol-5-yl)-1,11-dihydroisochromeno[4′,3′:6,7]naphtho[1,2-d]imidazol-2-yl)-5-methylpyrrolidin-1-yl)-3-methyl-1-oxobutan-2-yl)carbamate] | 24.1
COC(=O)N[C@H](C(=O)N1CC2(CC2)C[C@H]1c1nc(Cl)c(-c2ccc3c(c2)COc2cc4c(ccc5nc([C@@H]6CC7(CC7)CN6C(=O)[C@@H](NC(=O)OC)C(C)C)[nH]c54)cc2-3)[nH]1)C(C)C [Compound 2, methyl ((S)-1-((S)-6-(4-chloro-5-(2-((S)-5-((methoxycarbonyl)-L-valyl)-5-azaspiro[2.4]heptan-6-yl)-1,11-dihydroisochromeno[4′,3′:6,7]naphtho[1,2-d]imidazol-9-yl)-1H-imidazol-2-yl)-5-azaspiro[2.4]heptan-5-yl)-3-methyl-1-oxobutan-2-yl)carbamate] | 50.5
CC[C@@H](C)[C@H](NC(=O)OC)C(=O)N1C[C@@H](COC)C[C@H]1c1nc(Cl)c(-c2ccc3c(c2)COc2cc4c(ccc5nc([C@@H]6CC[C@H](C)N6C(=O)[C@@H](NC(=O)OC)C(C)C)[nH]c54)cc2-3)[nH]1 [Compound 19, methyl ((S)-1-((2S,5S)-2-(9-(4-chloro-2-((2S,4S)-1-((methoxycarbonyl)-L-alloisoleucyl)-4-(methoxymethyl)pyrrolidin-2-yl)-1H-imidazol-5-yl)-1,11-dihydroisochromeno[4′,3′:6,7]naphtho[1,2-d]imidazol-2-yl)-5-methylpyrrolidin-1-yl)-3-methyl-1-oxobutan-2-yl)carbamate] | 16.4
COC(=O)N[C@H](C(=O)N1[C@@H](C)CC[C@H]1c1nc(Cl)c(-c2ccc3c(c2)COc2cc4c(ccc5nc([C@@H]6CC[C@H](C)N6C(=O)[C@@H](NC(=O)OC)C(C)(C)C)[nH]c54)cc2-3)[nH]1)C(C)(C)C [Compound 23, methyl ((S)-1-((2S,5S)-2-(4-chloro-5-(2-((2S,5S)-1-((S)-2-((methoxycarbonyl)amino)-3,3-dimethylbutanoyl)-5-methylpyrrolidin-2-yl)-1,11-dihydroisochromeno[4′,3′:6,7]naphtho[1,2-d]imidazol-9-yl)-1H-imidazol-2-yl)-5-methylpyrrolidin-1-yl)-3,3-dimethyl-1-oxobutan-2-yl)carbamate] | 9.4
COC(=O)N[C@H](C(=O)N1[C@@H](C)CC[C@H]1c1nc(C(C)C)c(-c2ccc3c(c2)COc2cc4c(ccc5nc([C@@H]6CC[C@H](C)N6C(=O)[C@@H](NC(=O)OC)C(C)(C)C(F)(F)F)[nH]c54)cc2-3)[nH]1)C(C)(C)C(F)(F)F [Compound 45, methyl ((S)-4,4,4-trifluoro-1-((2S,5S)-2-(4-isopropyl-5-(2-((2S,5S)-5-methyl-1-((S)-4,4,4-trifluoro-2-((methoxycarbonyl)amino)-3,3-dimethylbutanoyl)pyrrolidin-2-yl)-1,11-dihydroisochromeno[4′,3′:6,7]naphtho[1,2-d]imidazol-9-yl)-1H-imidazol-2-yl)-5-methylpyrrolidin-1-yl)-3,3-dimethyl-1-oxobutan-2-yl)carbamate] | 4.9
CC[C@H](C)[C@H](NC(=O)OC)C(=O)N1CCC[C@H]1c1nc(Cl)c(-c2ccc3c(c2)COc2cc4c(ccc5nc([C@@H]6CCCN6C(=O)[C@@H](NC(=O)OC)[C@@H](C)CC)[nH]c54)cc2-3)[nH]1 [Compound 27, methyl ((2S,3S)-1-((S)-2-(4-chloro-5-(2-((S)-1-((methoxycarbonyl)-L-isoleucyl)pyrrolidin-2-yl)-1,11-dihydroisochromeno[4′,3′:6,7]naphtho[1,2-d]imidazol-9-yl)-1H-imidazol-2-yl)pyrrolidin-1-yl)-3-methyl-1-oxopentan-2-yl)carbamate] | 15.3
CC[C@H](C)[C@H](NC(=O)OC)C(=O)N1[C@@H](C)CC[C@H]1c1nc(C2CC2)c(-c2ccc3c(c2)COc2cc4c(ccc5nc([C@@H]6CC[C@H](C)N6C(=O)[C@@H](NC(=O)OC)[C@@H](C)CC)[nH]c54)cc2-3)[nH]1 [Compound 39, methyl ((2S,3S)-1-((2S,5S)-2-(4-cyclopropyl-5-(2-((2S,5S)-1-((methoxycarbonyl)-L-isoleucyl)-5-methylpyrrolidin-2-yl)-1,11-dihydroisochromeno[4′,3′:6,7]naphtho[1,2-d]imidazol-9-yl)-1H-imidazol-2-yl)-5-methylpyrrolidin-1-yl)-3-methyl-1-oxopentan-2-yl)carbamate] | 17.2
COC[C@H]1C[C@@H](c2nc(Cl)c(-c3ccc4c(c3)COc3cc5c(ccc6nc([C@@H]7CC[C@H](C)N7C(=O)[C@@H](NC(=O)OC)C(C)C)[nH]c65)cc3-4)[nH]2)N(C(=O)[C@@H](NC(=O)OC)C(C)C)C1 [Compound 7, methyl ((S)-1-((2S,5S)-2-(9-(4-chloro-2-((2S,4S)-1-((methoxycarbonyl)-L-valyl)-4-(methoxymethyl)pyrrolidin-2-yl)-1H-imidazol-5-yl)-1,11-dihydroisochromeno[4′,3′:6,7]naphtho[1,2-d]imidazol-2-yl)-5-methylpyrrolidin-1-yl)-3-methyl-1-oxobutan-2-yl)carbamate] | 39
COC(=O)N[C@H](C(=O)N1[C@@H](C)CC[C@H]1c1nc(C2CC2)c(-c2ccc3c(c2)COc2cc4c(ccc5nc([C@@H]6CC[C@H](C)N6C(=O)[C@@H](NC(=O)OC)C6C[C@@H](C)O[C@H](C)C6)[nH]c54)cc2-3)[nH]1)C1C[C@@H](C)O[C@H](C)C1 (stereo partly drawn) [Compound 11, methyl ((S)-2-((2S,5S)-2-(9-(4-cyclopropyl-2-((2S,5S)-1-((S)-2-((2R,6R)-2,6-dimethyltetrahydro-2H-pyran-4-yl)-2-((methoxycarbonyl)amino)acetyl)-5-methylpyrrolidin-2-yl)-1H-imidazol-5-yl)-1,11-dihydroisochromeno[4′,3′:6,7]naphtho[1,2-d]imidazol-2-yl)-5-methylpyrrolidin-1-yl)-1-((2R,6R)-2,6-dimethyltetrahydro-2H-pyran-4-yl)-2-oxoethyl)carbamate] | 21.9
CC[C@H](C)[C@H](NC(=O)OC)C(=O)N1[C@@H](C)CC[C@H]1c1nc(Cl)c(-c2ccc3c(c2)COc2cc4c(ccc5nc([C@@H]6CC[C@H](C)N6C(=O)[C@@H](NC(=O)OC)[C@@H](C)CC)[nH]c54)cc2-3)[nH]1 [Compound 22, methyl ((2S,3S)-1-((2S,5S)-2-(4-chloro-5-(2-((2S,5S)-1-((methoxycarbonyl)-L-isoleucyl)-5-methylpyrrolidin-2-yl)-1,11-dihydroisochromeno[4′,3′:6,7]naphtho[1,2-d]imidazol-9-yl)-1H-imidazol-2-yl)-5-methylpyrrolidin-1-yl)-3-methyl-1-oxopentan-2-yl)carbamate] | 10.8
